Values of other authors in US20250114344A1, “COMBINATORIAL PHARMACOTHERAPY FOR THE RESTORATION OF NEURO-FUNCTION AND COMBINATORIAL PHARMACOLOGICAL COMPOSITION THEREFORE” (Neuro-Innovators, LLC., priority 2022, published 2025).

What was measured:
MANF (a form of BDNF) = details: Prefrontal Cortex and Striatum, compared to controls
CYP3A4 = CYP3A4 (Homo sapiens, UniProt P08684)
[1] = compared with aspirin; fewer hemorrhagic events

CYP3A4, sequence (P08684 whole entry, species assumed): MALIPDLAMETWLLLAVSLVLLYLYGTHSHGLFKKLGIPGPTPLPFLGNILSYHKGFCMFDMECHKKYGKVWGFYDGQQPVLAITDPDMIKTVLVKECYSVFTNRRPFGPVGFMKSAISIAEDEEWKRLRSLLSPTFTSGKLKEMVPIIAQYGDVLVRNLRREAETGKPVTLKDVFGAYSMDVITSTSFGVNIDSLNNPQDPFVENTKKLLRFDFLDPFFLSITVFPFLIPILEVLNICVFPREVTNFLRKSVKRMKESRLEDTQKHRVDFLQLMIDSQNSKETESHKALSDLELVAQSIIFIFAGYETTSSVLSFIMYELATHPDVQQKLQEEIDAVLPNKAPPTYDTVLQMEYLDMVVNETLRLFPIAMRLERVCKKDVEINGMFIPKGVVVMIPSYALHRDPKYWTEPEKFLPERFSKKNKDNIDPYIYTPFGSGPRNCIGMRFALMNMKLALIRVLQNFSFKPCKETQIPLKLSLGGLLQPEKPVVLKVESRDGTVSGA

Compound	MANF expression (MANF (a form of BDNF))	interaction with CYP3A4 (CYP3A4)	incidence of recurrent stroke [1]
O=C([O-])[O-].[Li+].[Li+] [lithium, Lithium Carbonate]	significant increase		
O=C1CCc2cc(OCCCCc3nnnn3C3CCCCC3)ccc2N1 [Cilostazol]		substrate for CYP3A4	significantly reduce the incidence of recurrent stroke
